Paper PMC10063609, “Discovery of novel cardiac troponin activators using fluorescence polarization-based high throughput screening assays” (Scientific Reports, 2023)
Each block holds one compound with its values, some of them ahead of it.

Experiments:
[1] = molecular target: interaction between cTnC and the anchoring region of cTnI (cTnIAR) (Homo sapiens, UniProt P63316); test: Fluorescence polarization HTS, binding and dose-response, cTnC/FAM-cTnIAR; details: for FP (mP): cTnIAR primary screen, single concentration 10 μmol/L; for Effect on FP from the cTnC FAM-cTnIAR mixture: dose-response, concentration dependent (Fig. 2c)
[2] = molecular target: interaction between cTnC and switch peptide of cTnI (cTnISP) (Homo sapiens, UniProt P63316); test: Fluorescence polarization HTS and dose-response, cTnC/FAM-cTnISP; format: binding; details: for FP (mP): cTnISP primary screen, single concentration 50 μmol/L; for Effect on FP from a mixture of FAM-cTnISP and cTnC: dose-response, concentration dependent (Fig. 2a)
[3] = tested on: bovine cardiac myofibrils; test: NADH-coupled ATPase activity of isolated cardiac myofibrils; format: biochemical; details: for Effect on ATPase activity of cardiac myofibrils: submaximal calcium activation (~30% of maximum), pCa 6, up to 100 μmol/L; for Effect on myofibrillar ATPase activity: sub-maximal activation (~70% of maximal), pCa 5.8, up to 100 μmol/L

FP (mP) ([1]; TOCRIScreen library): 103.2 mP
Compound: CCOc1cc(CC(=O)N[C@@H](CC(C)C)c2ccccc2N2CCCCC2)ccc1C(=O)O [Repaglinide]

Effect on ATPase activity of cardiac myofibrils [3]: no or little activation
FP (mP) ([2]; LOPAC 1280 library): 112 mP
Effect on FP from a mixture of FAM-cTnISP and cTnC [2]: increased the FP
Compound: CC(C)c1cccc(C(C)C)c1N1C(=O)c2ccc(O)cc2C1=O [5-HPP-33]

FP (mP) ([1]; LOPAC 1280 library): 71.7 mP
Effect on FP from the cTnC FAM-cTnIAR mixture [1]: decreased the FP
Effect on myofibrillar ATPase activity [3]: no effect
Compound: O=C(O)c1cccc(-c2ccc(-c3cn(C(=O)N4CCCCC4Cc4ccccc4)nn3)cc2)c1 (stereo not drawn) [KT203]

FP (mP) ([1]; ENZO Screenwell library): 70.9 mP
Compound: NC(=O)N1c2ccccc2CC(=O)c2ccccc21 [Oxcarbazepine]

Effect on ATPase activity of cardiac myofibrils [3]: no or little activation
FP (mP) ([2]; TOCRIScreen library): 127.9 mP
Effect on FP from a mixture of FAM-cTnISP and cTnC [2]: increased the FP
Compound: O=C(O)c1ccc(/C=C2\SC(=S)N(c3cccc(C(F)(F)F)c3)C2=O)cc1 [CFTR Inh172]

FP (mP) ([1]; LOPAC 1280 library): 117.8 mP
Compound: CN(C)c1cc2c(Nc3ccc4c(cnn4Cc4ccccc4)c3)ncnc2cn1 [GW2974]

FP (mP) ([1]; TOCRIScreen library): 105.5 mP
Compound: O=C(NCc1ccc(C(F)(F)F)cc1)Nc1cccc2cnccc12 [A 425619]

FP (mP) ([1]; TOCRIScreen library): 104.8 mP
Compound: CCn1c(-c2nonc2N)nc2cnc(Oc3cccc(NC(=O)c4ccc(OCCN5CCOCC5)cc4)c3)cc21 [GSK 269962]

FP (mP) ([1]; LOPAC 1280 library): 65 mP
Compound: Oc1c2ccccc2c2c3c(cccc13)N=N2 [SP600125]

FP (mP) ([1]; LOPAC 1280 library): 64.6 mP
Effect on FP from the cTnC FAM-cTnIAR mixture [1]: decreased the FP
Effect on myofibrillar ATPase activity [3]: no effect
Compound: COc1ccc(-c2oc3c(CC=C(C)C)c(O)cc(O)c3c(=O)c2O)cc1 [Icaritin]

FP (mP) ([1]; LOPAC 1280 library): 67.5 mP
Compound: Cl.c1ccc(C2CCCC2NC2=NCCCCCCCCCCC2)cc1 (stereo not drawn) [cDPCP]

FP (mP) ([1]; ENZO Screenwell library): 116.5 mP
Compound: CC1Cc2ccccc2N1NC(=O)c1ccc(Cl)c(S(N)(=O)=O)c1 (stereo not drawn) [Indapamide]

Continued, compound first:

Compound: N.N.N.N.N.N.N.N.N.N.N.N.N.N.[Cl-].[Cl-].[Cl-].[Cl-].[Cl-].[Cl-].[O-2].[O-2].[Ru+3].[Ru+3].[Ru+4] [Ruthenium red]
FP (mP) ([1]; LOPAC 1280 library): 44.3 mP
FP (mP) ([2]; LOPAC 1280 library): 83.7 mP

Compound: N.N.[Cl][Pt][Cl] [Cisplatin, Cis-Diamineplatinum(Ii) Dichloride]
FP (mP) ([1]; ENZO Screenwell library): 61.9 mP
FP (mP) ([1]; LOPAC 1280 library): 56.6 mP

Compound: O=C(O)C[C@H]1CC[C@H](c2ccc(NC(=O)c3nnc(Nc4ccc(F)c(F)c4)o3)cc2)CC1 [AZD 3988]
FP (mP) ([1]; TOCRIScreen library): 115.5 mP

Compound: CCCC[P+](CCCC)(CCCC)Cc1ccc(NC(=O)[C@H](Cc2ccc3ccccc3c2)NC(=NC2CCCCC2)NC2CCCCC2)cc1.Cl.[Cl-] [WIN 64338 hydrochloride]
FP (mP) ([1]; TOCRIScreen library): 71 mP

Compound: CN(C)CCCn1cc(C2=C(c3c[nH]c4ccccc34)C(=O)NC2=O)c2ccccc21 [GF 109203X]
FP (mP) ([1]; TOCRIScreen library): 104.5 mP
FP (mP) ([2]; TOCRIScreen library): 82.4 mP

Compound: N#CC(C#N)=C(N)/C(C#N)=C/c1ccc(O)cc1 [Tyrphostin AG 112]
FP (mP) ([1]; LOPAC 1280 library): 115.8 mP

Compound: O=C(Nc1cccc(C(F)(F)F)c1)Nc1ccc(Br)cc1-c1nn[nH]n1 [NS3623]
Effect on ATPase activity of cardiac myofibrils [3]: significantly increased the ATPase activity
FP (mP) ([2]; TOCRIScreen library): 121.6 mP
Effect on FP from a mixture of FAM-cTnISP and cTnC [2]: increased the FP

Compound: N.N.O=C([O-])C1(C(=O)[O-])CCC1.[Pt+2] [Carboplatin]
FP (mP) ([1]; ENZO Screenwell library): 67.3 mP

Compound: C[C@]12C=CC(=O)C=C1CC[C@@H]1C2=CC[C@]2(C)[C@@H](C(=O)CN3CCN(c4cc(N5CCCC5)nc(N5CCCC5)n4)CC3)CC[C@@H]12.O=C(O)/C=C\C(=O)O [U-74389G maleate]
FP (mP) ([1]; LOPAC 1280 library): 115.3 mP

Compound: Colistin Sulfate
FP (mP) ([1]; ENZO Screenwell library): 71.7 mP
FP (mP) ([2]; ENZO Screenwell library): 78.5 mP
